According to patent US20130225522A1, “COMPOSITION FOR RELIEVING STIMULUS OF SKIN CAUSED BY DYE” (Amorepacific Corporation, priority 2009, published 2013):

Tested on: mouse ear
Assay: mouse ear swelling test (MEST)
Assay type: in vivo
Details: BALB/c mouse
Procedure: To evaluate an effect of relieving skin irritation caused by a dye and for preventing or inhibiting inflammation caused by a dye, the mouse ear swelling test (MEST) using a mouse is carried out in the manner as described below.
A 7 weeks-aged mouse subject (BALC/c) is obtained and subjected to quarantine and adaptation for a period of 10 days. Then, the mouse is dehaired at its abdominal portion, and a main ingredient of dye, i.e. 3% paraphenylene diamine (PPD) is applied thereto in combination with a monosaccharide (glucose, galactose or fructose) or disaccharide (maltose, lactose or sucrose) for 7 days three times a day. As a control, each of dimethyl sulfoxide (DMSO) solvent and 3% PPD is applied. Twenty-four hours after the final application, the mouse ear is weighed. After weighing, the mouse ear is fixed in formalin and subjected to hematoxylin & eosin (H&E) staining for a histopathological test. Then, the thickness of the mouse ear is determined. Herein, the weight of the mouse ear is measured by biopsy of the ear of the mouse subject (Balb/c), to which each test sample is applied, using a 6 mm punch. The thickness of the mouse ear is determined by measuring the thickness of the ear of the mouse subject (Balb/c) stained after weighing the mouse ear weight by using a microscope.

For `Nc1ccc(N)cc1` [PPD (3%), paraphenylene diamine], the Ear thickness (3% PPD alone or in combination with saccharide applied for 7 days three times a day, formalin-fixed, H&E stained ear measured by microscope) was 433.28 ± 11.57 μm and the Ear weight (3% PPD alone or in combination with saccharide applied to dehaired abdominal portion for 7 days three times a day, ear weighed 24 h after final application, 6 mm punch biopsy) was 14.74 ± 0.23 mg.
